Converted amounts (≈) assume the structure as drawn.
settings: buffer; pH 7.4; 200.0 µM

Row | solubility kinetic [µg/mL] | Compound
1 | > 51.8 | Cc1ccc(S(=O)(=O)N2CCN(CCc3ccncc3)CC2)cc1
2 | > 56.6 | CC1CC(=O)Nc2ccccc2N1C(=O)CSc1ccc2ccccc2n1 (stereo unspecified)
3 | > 44.7 | Cc1cc(=O)c(C(=O)O)nn1-c1ccccc1C(F)(F)F
4 | > 63.2 | CC(C)[C@H](NC(=O)c1ccccc1F)C(=O)OCC(=O)Nc1sccc1C(N)=O
5 | 3.6 | CN(C)CCN(C(=O)c1ccc2ccccc2c1)c1nc2ccc(Br)cc2s1.Cl
6 | 12.3 (≈ 39.8 µM) | Cc1ccc(NC(=O)CCc2c(C)[nH]c(=O)c(C#N)c2C)cc1
7 | > 48.3 | O=C(Nc1sc2c(c1C(=O)O)CCC2)c1cccc(Cl)c1
8 | > 58.7 | O=C(NCc1cccc(C(F)(F)F)c1)N1CCN(C(=O)c2ccccc2)CC1
9 | 35.9 (≈ 133 µM) | Cc1cccc(NC(=O)C2COc3ccccc3O2)n1 (stereo unspecified)
10 | 25.9 (≈ 71.1 µM) | COc1ccc(N2CCN(C(=O)Cc3coc4cc(C)ccc34)CC2)cc1
11 | > 49.4 | CC(C)c1ccc(NC(=O)CN2C(=O)NC3(CCCC3)C2=O)cc1
12 | 7.2 (≈ 22.4 µM) | O=C(NC1CCSc2ccccc21)c1c(F)cccc1Cl (stereo unspecified)
13 | 30 (≈ 111 µM) | O=C1CCCc2ccccc2N1Cc1ccc(F)cc1
14 | > 46.1 | COc1ccc(CCNC(=O)COC(=O)C2CC2)cc1OC
15 | > 44.9 | O=C1CN(C(=O)CSc2ccccn2)c2ccccc2N1
16 | 23.4 (≈ 82.6 µM) | COc1ccc(CN2C(=O)C(C)Oc3ccccc32)cc1 (stereo unspecified)
17 | > 41.9 | Nc1cc(=O)[nH]c(SCC(=O)c2ccc(F)cc2)n1
18 | 32 (≈ 91.6 µM) | O=C(CCS(=O)(=O)c1ccccc1)OCc1ccc([N+](=O)[O-])cc1
19 | 10.7 (≈ 41.8 µM) | Clc1ccc(Oc2ccccc2)c2ncccc12
20 | 2.7 (≈ 11.1 µM) | Cc1cccn2cc(-c3ccc(Cl)cc3)nc12
21 | 10.8 (≈ 42.6 µM) | CN(C)c1ccc(C(=O)C(=O)c2ccccc2)cc1
22 | 2.5 (≈ 8.98 µM) | Cc1ccc(SCCC(=O)Nc2nccs2)cc1
23 | > 62.5 | COc1ccc(C(=O)N/C(=C\c2ccccc2)C(=O)Nc2ccccc2C(=O)O)cc1
24 | < 0.2 | Cc1cc(-c2csc(Nc3ccccn3)n2)ccc1F
25 | 39.3 (≈ 147 µM) | COc1ccc(N2C(=O)Cc3ccccc3C2=O)cc1
26 | > 46.1 | Cc1csc(NC(=O)c2cccc([N+](=O)[O-])c2C(=O)O)n1

Row | solubility kinetic [µg/mL] | Compound
27 | 37 (≈ 143 µM) | CCOc1ccccc1NC(=O)CCn1ccnc1
28 | < 0.4 | Cc1ccc(N2CCN(S(=O)(=O)c3ccc(C)cc3)CC2)cc1
29 | < 0.4 | Cc1ccc(N2C(=NC(=O)c3ccccc3)SC3CS(=O)(=O)CC32)cc1 (stereo unspecified)
30 | > 44.8 | CC(C)c1ccccc1NC(=O)COC(=O)c1cccnc1
31 | 4.6 (≈ 14.9 µM) | Cc1ccc(C(=O)NCC(=O)Nc2ccc(Cl)cc2)s1
32 | 9.7 (≈ 36.4 µM) | COc1ccccc1/C=C(\C#N)C(=O)c1cccn1C
33 | 46.3 (≈ 144 µM) | COC(=O)c1ccc(C2C(C#N)=C(N)Oc3cc(O)ccc32)cc1 (stereo unspecified)
34 | 41.3 (≈ 149 µM) | N#C/C(=C(/O)CCl)c1nc(-c2ccccc2)cs1
35 | 35 (≈ 114 µM) | O=S(=O)(NCc1ccco1)c1ccc(Cl)cc1Cl
36 | > 42.2 | COc1ccc(CN2C(=O)CCCc3ccccc32)cc1
37 | 3.9 (≈ 12.1 µM) | Cc1ccc(C(=O)NCCn2ccc3ccccc32)cc1[N+](=O)[O-]
38 | > 48.5 | Cc1ccc(Cn2c(CCC(=O)O)nc3ncccc3c2=O)cc1
39 | > 51.4 | CC(=O)c1ccccc1NC(=O)CCN1C(=O)C2CCCCC2C1=O (stereo unspecified)
40 | < 0.2 | COc1ccc(-c2nc(N)ncc2-c2ccc(Cl)cc2)c(O)c1
41 | > 50 | COc1ccccc1C(=O)NCC(=O)NNC(=O)c1cccs1
42 | > 48.5 | CN1CCN(C(=O)c2ccccc2NC(=O)c2ccccc2)CC1
43 | 10.4 (≈ 30.6 µM) | COc1cc(NC(=O)c2ccc(N3CCCC3=O)cc2)cc(OC)c1
44 | 4.7 (≈ 16.9 µM) | Cc1ccc(-c2nc(C=Nc3ccccc3)c(O)o2)cc1
45 | > 53.8 | O=c1cc(CO)oc(C(Nc2ccccn2)c2ccccc2Cl)c1O (stereo unspecified)
46 | 0.9 (≈ 3.58 µM) | CCC(=O)Nc1nc2ccc([N+](=O)[O-])cc2s1
47 | 12.3 (≈ 36.9 µM) | CCCCOC(=O)C1=C(C)NC(=O)NC1c1cccc([N+](=O)[O-])c1 (stereo unspecified)
48 | < 0.3 | CCOc1ccccc1NC(=O)NCCCCc1ccccc1
49 | 30.2 (≈ 137 µM) | NC(=S)Nc1cc(Cl)ccc1Cl
50 | 35.8 (≈ 145 µM) | CN(C)/C=N/S(=O)(=O)c1ccc(Cl)cc1
51 | > 43 | Cc1nc(CNS(=O)(=O)c2ccc(F)cc2)cs1

Further lines, the compound ahead of its results:

Row | Compound | solubility kinetic [µg/mL]
52 | COc1ccccc1-n1c(-c2ccccc2)nc2ccccc2c1=O | > 49.3
53 | CC1CCCC(NC(=O)CSc2nncs2)C1C (stereo unspecified) | > 42.8
54 | CN(C(=O)CSc1nc(N)cc(N)n1)C1CCS(=O)(=O)C1 (stereo unspecified) | 41 (≈ 124 µM)
55 | CC(C)OC(=O)CSc1nc2c(cc1C#N)CCCCC2 | < 0.3
56 | CCN1CCC(NCCc2ccc(F)cc2)CC1 | 24.9 (≈ 99.5 µM)
57 | O=C(Cc1c(F)cccc1Cl)N1CCOCC1 | > 38.7
58 | O/N=C\c1cccn1-c1nccs1 | > 29
59 | CCNC(=S)N1CCN(C(=O)C(Cc2ccccc2)NC(C)=O)CC1 (stereo unspecified) | > 54.4
60 | Cc1cc(C)c(S(=O)(=O)NC2CC(C)(C)NC(C)(C)C2)cc1Br | 12.5 (≈ 31 µM)
61 | O=C(NCC1CCCO1)c1c(O)nc2sccn2c1=O (stereo unspecified) | > 44.3
62 | O=S1(=O)CC2SC(=S)N(Cc3ccccc3)C2C1 (stereo unspecified) | 1.8 (≈ 6.01 µM)
63 | NC(=O)C1CCN(C(=O)CCC(=O)c2cccs2)CC1 | > 44.2
64 | O=C(CSC1=NCCN1)NC(c1ccccc1)c1ccccc1 | 44 (≈ 135 µM)
65 | COc1ccc(-c2csc(Nc3cc(C)ccn3)n2)cc1C | < 0.2
66 | Cn1cnc([N+](=O)[O-])c1Cl | > 24.2
67 | CC(=O)OC1CC(c2cc(C(C)(C)C)c(O)c(C(C)(C)C)c2)=NO1 (stereo unspecified) | 7.7 (≈ 23.1 µM)
68 | O=C1/C(=C/c2ccccn2)COc2ccccc21 | 11.3 (≈ 47.6 µM)
69 | O=C1CC(c2ccsc2)Sc2ccccc2N1 (stereo unspecified) | 33.9 (≈ 130 µM)

Row | Compound | solubility kinetic [µg/mL]
70 | COc1ccc(S(=O)(=O)NC2CCCCCC2)c(OC)c1 | 9.4 (≈ 30 µM)
71 | Cl.O=C(OCCN1CCCCC1)c1ccccc1F | > 43.2
72 | Cc1ccc(S(=O)(=O)N2CCOCC2)cc1C(=O)N1CC(C)CC(C)C1 (stereo unspecified) | 35.9 (≈ 94.3 µM)
73 | CCN1CCN(c2oc(-c3ccc([N+](=O)[O-])cc3)nc2C#N)CC1 | 4 (≈ 12.2 µM)
74 | Oc1ccc(CN2CCN(c3ncccn3)CC2)cc1 | 34.2 (≈ 127 µM)
75 | N#C/C(=C\c1ccccn1)c1ccccn1 | > 31.1
76 | CCOc1cccc(CN2CCN(Cc3ccc(C)o3)C(CCO)C2)c1O (stereo unspecified) | > 56.2
77 | COc1ccc(NC(=O)CO/N=C2/CCCc3nonc32)c(OC)c1 | > 52
78 | O=C(COC(=O)c1ccc(Br)c(S(=O)(=O)N2CCOCC2)c1)NC1CC1 | > 67.1
79 | COc1ccc2nc(C)c3c(c2c1)OC(C(C)(Cl)Br)C3 (stereo unspecified) | 4 (≈ 11.2 µM)
80 | Cc1cc(C)c2ccc3c(C)c(C)n(C)c3c2n1 | < 0.3
81 | Cc1c(C)c(C)c(S(=O)(=O)NCCc2ccccn2)c(C)c1C | 40.3 (≈ 121 µM)
82 | O=[N+]([O-])c1cccc(C(O)C23CN4CN(CN(C4)C2)C3)c1 (stereo unspecified) | > 43.5
83 | CC(Cc1ccccc1)NC(=O)Cc1ccc([N+](=O)[O-])cc1 (stereo unspecified) | 22.6 (≈ 75.8 µM)
84 | CS(=O)(=O)/C(C#N)=C/c1c(-c2ccccc2)nc2n1CCS2 | 2.4 (≈ 7.24 µM)
85 | CCCS(=O)(=O)N1CCCC(C(=O)Oc2ccccc2Cl)C1 (stereo unspecified) | 45.6 (≈ 132 µM)
86 | CCOc1ccc(S(=O)(=O)N2CN(c3cccc(C(C)=O)c3)c3nc4ccccc4nc32)cc1 | 3.1 (≈ 6.53 µM)
